Assay results: US20230339854A1, “Negative Allosteric Modulation of GluN3-Containing N-Methyl-D-Aspartate Receptors” (Emory University, priority 2020, published 2023)
“Also recorded” adds a separate entry of the source.

Experiments:
[1] = target: T1, human GluN1/GluN3A receptors (Homo sapiens, UniProt Q05586+Q8TCU5); test: Two-electrode voltage-clamp recordings of GluN1/GluN3A receptors in the presence of CGP-78608 (Xenopus oocytes); type: cell-based; conditions: pH 7.4; 0.5 μM CGP-78608; read-out: EC50, (95% CI) GluN1/GluN3A + CGP
T1 construct: Human GluN3A (NP_597702.2) and rat GluN3B (NP_579842.2) were synthesized and subcloned into SP6 plasmids; expressed in transfected cells; host or cells: Xenopus laevis oocytes, cRNA injection
T1 sequence (Q8TCU5 24-1115, other chains not shown): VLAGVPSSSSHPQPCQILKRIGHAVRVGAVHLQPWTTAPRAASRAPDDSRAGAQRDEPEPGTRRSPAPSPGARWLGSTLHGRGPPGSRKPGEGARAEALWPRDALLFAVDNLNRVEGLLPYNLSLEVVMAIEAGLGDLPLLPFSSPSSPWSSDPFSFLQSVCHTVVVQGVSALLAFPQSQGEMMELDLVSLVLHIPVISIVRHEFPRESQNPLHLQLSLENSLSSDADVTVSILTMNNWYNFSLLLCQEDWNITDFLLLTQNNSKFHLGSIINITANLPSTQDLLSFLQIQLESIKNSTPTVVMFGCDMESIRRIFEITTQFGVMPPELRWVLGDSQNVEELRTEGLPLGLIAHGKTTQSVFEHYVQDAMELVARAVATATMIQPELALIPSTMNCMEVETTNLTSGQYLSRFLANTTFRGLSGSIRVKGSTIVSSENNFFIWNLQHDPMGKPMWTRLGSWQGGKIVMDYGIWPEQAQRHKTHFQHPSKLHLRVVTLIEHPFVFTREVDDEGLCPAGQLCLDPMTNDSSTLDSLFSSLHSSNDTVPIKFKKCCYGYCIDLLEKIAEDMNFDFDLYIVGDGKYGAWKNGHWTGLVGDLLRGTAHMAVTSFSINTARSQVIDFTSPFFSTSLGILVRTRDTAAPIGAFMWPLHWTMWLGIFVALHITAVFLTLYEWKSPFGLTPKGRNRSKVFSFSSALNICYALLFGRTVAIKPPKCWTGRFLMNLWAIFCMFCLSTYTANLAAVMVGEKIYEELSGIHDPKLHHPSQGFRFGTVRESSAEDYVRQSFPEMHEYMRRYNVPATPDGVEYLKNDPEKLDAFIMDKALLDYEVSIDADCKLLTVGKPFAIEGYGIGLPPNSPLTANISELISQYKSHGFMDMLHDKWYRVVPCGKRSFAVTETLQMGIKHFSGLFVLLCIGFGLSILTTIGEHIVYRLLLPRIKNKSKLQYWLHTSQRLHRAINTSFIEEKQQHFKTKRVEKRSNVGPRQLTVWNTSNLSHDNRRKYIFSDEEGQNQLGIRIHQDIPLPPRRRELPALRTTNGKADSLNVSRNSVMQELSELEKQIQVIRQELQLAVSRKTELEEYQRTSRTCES
Text: (§1) cDNA encoding human wild-type (WT) GluN1-1a (GenBank accession numbers NP_015566, hereafter GluN1) and rat GluN1-1a (NP_058706.1) were synthesized and subcloned into pGEMHE plasmid; some experiments used the rat splice variant GluN1-4a (NP_001257531.1). Human GluN3A (NP_597702.2) and rat GluN3B (NP_579842.2) were synthesized and subcloned into SP6 plasmids. For most experiments, human GluN1 was co-expressed with human GluN3A, except for mutagenesis experiments where rat GluN1 was co-expressed with human GluN3A. Rat GluN1-4a was always expressed with rat GluN3B.
(§2) Defolliculated Xenopus laevis oocytes (stage V-VI) were obtained from Ecocyte BioScience (Austin, Texas), or prepared from commercially available Xenopus ovaries (Xenopus 1, Dexter, MI) as previously described (Hansen, et al., Mol. Pharmacol., 2013). A Drummond Nanoject II (Broomall, PA) was used to inject oocytes with cRNAs encoding GluN1 and GluN3 at a 1:3 ratio in RNase-free water. The cRNA was diluted as needed to give responses with amplitudes ranging between 200-2000 nA (0.2-10 ng total cRNA). Following cRNA injection, the oocytes were stored at 15-19° C. in Barth's solution that contained (in mM) 88 NaCl, 2.4 NaHCO3, 1 KCl, 0.33 Ca(NO3)2, 0.41 CaCl2), 0.82 MgSO4, and 5 Tris-HCl (pH 7.4 with NaOH), supplemented with 1 μg/ml streptomycin (Invitrogen, Carlsbad, CA) and 100 μg/ml gentamicin (Fisher Scientific, Pittsburgh, PA). Recordings were performed 2-5 days following cRNA microinjection at room temperature (23° C.) using a two-electrode voltage-clamp amplifier (OC725, Warner Instrument, Hamilton, CT). The signal was low-pass filtered at 10-20 Hz (4-pole, −3 dB Bessel) and digitized at the Nyquist rate using PCI-6025E or USB-6212 BNC data acquisition boards (National Instruments, Austin, TX) using EasyOocyte (http://www.easyoocyte.io/). Oocytes were placed in a custom-made chamber and continuously perfused (2.5 ml/min) with oocyte recording solution containing (in mM) 90 NaCl, 1 KCl, 10 HEPES, 0.5-1.0 BaCl2, and 0.01 EDTA (pH 7.4 with NaOH). Solutions were applied by gravity, and solution exchange was controlled through a rotary valve (Hamilton, Reno, NV). Recording electrodes were filled with 0.3-3.0 M KCl, and current responses were recorded at a holding potential of −40 mV.
(§3) Response (%)=(100−minimum)/(1+([concentration]/IC50)^nH)+minimum (2) • where nH is the Hill slope, IC50 is the concentration that produces a half-maximal effect, and minimum is the degree of residual inhibition at a saturating concentration of the negative allosteric modulator.

[2] = target: T2, human GluN1/GluN3A receptors (Homo sapiens, UniProt Q8TCU5); test: as above; type: cell-based
T2 construct: Human GluN3A (NP_597702.2) and rat GluN3B (NP_579842.2) were synthesized and subcloned into SP6 plasmids; expressed in transfected cells; host or cells: Xenopus laevis oocytes, cRNA injection
T2 sequence (Q8TCU5 24-1115, other chains not shown): as above
Text: as §1, §2, §3

[3] = target: T3, rat GluN1-4a/GluN3B receptors (Rattus norvegicus, UniProt P35439+Q8VHN2); test: Two-electrode voltage-clamp recordings of GluN1-4a/GluN3B receptors in the presence of CGP-78608 (Xenopus oocytes); type: cell-based; conditions: pH 7.4; 0.5 μM CGP-78608; read-out: EC50, (95% CI) GluN1/GluN3B + CGP
T3 construct: Human GluN3A (NP_597702.2) and rat GluN3B (NP_579842.2) were synthesized and subcloned into SP6 plasmids; expressed in transfected cells; host or cells: Xenopus laevis oocytes, cRNA injection
T3 sequence (Q8VHN2 25-1002, other chains not shown): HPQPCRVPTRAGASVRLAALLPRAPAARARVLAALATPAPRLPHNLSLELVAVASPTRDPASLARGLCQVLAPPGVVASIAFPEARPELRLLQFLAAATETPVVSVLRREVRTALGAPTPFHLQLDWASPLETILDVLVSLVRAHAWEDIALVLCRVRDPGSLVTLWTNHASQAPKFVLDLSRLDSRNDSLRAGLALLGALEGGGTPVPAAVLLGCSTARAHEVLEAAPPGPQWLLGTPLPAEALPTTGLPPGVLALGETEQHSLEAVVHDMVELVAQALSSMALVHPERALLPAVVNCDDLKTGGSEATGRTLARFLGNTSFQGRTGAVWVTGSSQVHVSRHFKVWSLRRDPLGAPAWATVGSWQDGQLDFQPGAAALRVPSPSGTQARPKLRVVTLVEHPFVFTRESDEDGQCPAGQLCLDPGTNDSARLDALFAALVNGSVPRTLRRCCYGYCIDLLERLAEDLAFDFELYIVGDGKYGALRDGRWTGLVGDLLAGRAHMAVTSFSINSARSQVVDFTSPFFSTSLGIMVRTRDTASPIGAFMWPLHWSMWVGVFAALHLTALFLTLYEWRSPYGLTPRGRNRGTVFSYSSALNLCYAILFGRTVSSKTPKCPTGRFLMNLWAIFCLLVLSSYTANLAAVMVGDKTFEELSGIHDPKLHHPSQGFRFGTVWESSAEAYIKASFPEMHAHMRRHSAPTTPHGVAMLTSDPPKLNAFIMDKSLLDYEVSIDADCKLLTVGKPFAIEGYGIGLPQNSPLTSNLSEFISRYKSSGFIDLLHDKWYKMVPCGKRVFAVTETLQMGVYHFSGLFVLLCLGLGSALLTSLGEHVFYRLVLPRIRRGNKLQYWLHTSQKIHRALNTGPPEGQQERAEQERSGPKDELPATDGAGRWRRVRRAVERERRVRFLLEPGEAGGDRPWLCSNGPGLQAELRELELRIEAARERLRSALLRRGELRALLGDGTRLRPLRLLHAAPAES
Text: as §1, §2, §3
(§4) Selected compounds were also screened in the same assay as EU1180-438 to determine their effect on GluN3B.

[4] = target: T4, rat GluN1-4a/GluN3B receptors (Rattus norvegicus, UniProt Q8VHN2); test: as above; type: cell-based
T4 construct: Human GluN3A (NP_597702.2) and rat GluN3B (NP_579842.2) were synthesized and subcloned into SP6 plasmids; expressed in transfected cells; host or cells: Xenopus laevis oocytes, cRNA injection
T4 sequence (Q8VHN2 25-1002, other chains not shown): as above
Text: as §1, §2, §3, §4

[5] = target: T5, GluK2 kainate receptors (Rattus norvegicus, UniProt P42260); test: Kainate receptors in Xenopus oocytes (selectivity); type: cell-based; conditions: 20 μM
T5 construct: expressed in transfected cells; host or cells: Xenopus laevis oocytes, cRNA injection
T5 sequence (P42260 32-908): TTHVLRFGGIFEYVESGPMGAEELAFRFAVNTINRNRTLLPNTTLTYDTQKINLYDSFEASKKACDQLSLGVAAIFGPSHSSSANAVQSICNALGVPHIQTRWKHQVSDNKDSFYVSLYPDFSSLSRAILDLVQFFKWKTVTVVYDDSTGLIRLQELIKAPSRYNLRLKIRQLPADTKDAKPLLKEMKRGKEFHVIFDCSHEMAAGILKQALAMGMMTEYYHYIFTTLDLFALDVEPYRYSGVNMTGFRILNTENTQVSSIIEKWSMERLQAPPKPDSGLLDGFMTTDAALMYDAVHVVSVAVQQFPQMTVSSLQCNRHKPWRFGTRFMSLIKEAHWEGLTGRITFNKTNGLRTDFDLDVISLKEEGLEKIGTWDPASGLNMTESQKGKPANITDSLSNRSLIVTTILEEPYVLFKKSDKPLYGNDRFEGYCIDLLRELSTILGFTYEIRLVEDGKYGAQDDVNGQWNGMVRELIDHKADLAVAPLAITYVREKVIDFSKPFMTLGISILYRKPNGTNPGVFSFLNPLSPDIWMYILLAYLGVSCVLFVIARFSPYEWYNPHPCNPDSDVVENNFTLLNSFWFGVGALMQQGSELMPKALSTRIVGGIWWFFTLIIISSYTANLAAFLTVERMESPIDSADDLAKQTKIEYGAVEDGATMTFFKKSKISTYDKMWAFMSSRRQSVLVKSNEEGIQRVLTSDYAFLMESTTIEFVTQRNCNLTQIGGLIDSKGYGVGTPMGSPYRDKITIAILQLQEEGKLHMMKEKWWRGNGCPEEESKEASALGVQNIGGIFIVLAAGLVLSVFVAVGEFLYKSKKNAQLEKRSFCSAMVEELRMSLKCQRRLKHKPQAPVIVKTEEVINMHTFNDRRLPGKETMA
Procedure: (§5) The numbers of oocytes recorded are in parentheses.
(§6) The cDNA was linearized by restriction enzymes (Thermo Fisher Scientific, Lithuania), and the cRNA encoding the receptor subunits was synthesized from the linear template cDNA using the mMESSAGE mMACHINE kit (Invitrogen/Thermo Fisher Scientific, Lithuania). The α1β1δγ nAChR subunits were injected at a 1:1:1:1 ratio while α4 […] nAChR subunits were injected at a 1:1 ratio. The cDNAs encoding GABA and glycine subunits were provided by Dr. D. Weiss (University of Texas Health Science Center at San Antonio). The cDNAs encoding nAChR subunits were provided by Drs. R. Papke (University of Florida) and S. Heinemann (Salk Institute). The cDNA encoding the purinergic receptor was provided by Dr. R. Hume (University of Michigan).
(§7) Responses in the presence of EU1180-438 were expressed as a percent of control calculated as the average of the responses before and after EU1180-438 exposure. […]
(§8) Defolliculated Xenopus laevis oocytes (stage V-VI) were obtained from Ecocyte BioScience (Austin, Texas), or prepared from commercially available Xenopus ovaries (Xenopus 1, Dexter, MI) as previously described (Hansen, et al., Mol. Pharmacol., 2013). […] Recording electrodes were filled with 0.3-3.0 M KCl, and current responses were recorded at a holding potential of −40 mV.

[6] = target: T6, glycine receptors (Rattus norvegicus, UniProt P07727); test: Glycine receptors in Xenopus oocytes (selectivity); type: cell-based; conditions: 20 μM
T6 construct: expressed in transfected cells; host or cells: Xenopus laevis oocytes; cDNA from Dr. D. Weiss
T6 sequence (P07727 29-457): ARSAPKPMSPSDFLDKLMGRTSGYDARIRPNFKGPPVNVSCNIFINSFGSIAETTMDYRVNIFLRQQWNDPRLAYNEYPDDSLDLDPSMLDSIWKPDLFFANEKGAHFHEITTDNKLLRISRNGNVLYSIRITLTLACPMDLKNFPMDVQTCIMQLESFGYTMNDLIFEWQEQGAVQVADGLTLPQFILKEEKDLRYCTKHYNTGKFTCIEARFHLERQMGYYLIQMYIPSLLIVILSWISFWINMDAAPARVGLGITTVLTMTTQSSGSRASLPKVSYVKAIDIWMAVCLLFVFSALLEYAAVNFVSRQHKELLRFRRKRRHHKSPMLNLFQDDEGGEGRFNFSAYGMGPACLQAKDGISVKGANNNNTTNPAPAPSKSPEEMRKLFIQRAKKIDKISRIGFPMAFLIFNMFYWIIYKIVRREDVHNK
Procedure: as §5, §6, §7, §8

[7] = system: GluN1/GluN2 NMDA receptors; test: Whole-cell patch-clamp of NMDA-activated responses in hippocampal CA1 pyramidal cells, acute brain slices; type: cell-based, mouse; conditions: 30 μM; 0.5 mM NMDA
[8] = 500 nM CGP-78608 plus 100 μM glycine
[9] = fitted maximum at saturating test compound, pH 7.4, 0.5 μM CGP-78608

## COc1ccc(OCC(c2ccc(OC)cc2)N2Cc3ccccc3C2=O)cc1 (racemic) [EU1180-438, 2-(2-(4-methoxyphenoxy)-1-(4-methoxyphenyl)ethyl)isoindolin-1-one]
[1]
  EC50: 1.8 µM
[2]; 500 nM CGP-78608
  maximal inhibition: 85%
[2]; [8]
  Slope: 1.5
  minimum: 15%
[2]; [9]
  % Inhibition GluN1/GluN3A + CGP: 85%, (n = 9)
[3]
  EC50: 2.2 µM
[4]; 500 nM CGP-78608
  maximal inhibition: 93%
[4]; [8]
  Slope: 1.5
  minimum: 7%
[4]; [9]
  % Inhibition GluN1/GluN3B + CGP: 93%, (n = 8)
[5]
  activity at GluK2 kainate receptors: virtually no activity
[6]
  activity at glycine receptors: virtually no activity
[7]
  effect on NMDA-activated responses mediated by GluN1/GluN2 NMDA receptors: not modulated; also recorded: did not affect
